Among the data in ChEMBL document CHEMBL1649369, “Novel 4-aryl-pyrido[1,2-c]pyrimidines with dual SSRI and 5-HT(1A) activity. part 3” (Eur J Med Chem, 2011) are Ki values, retold here.

The first assay concerns the target T1, 5-hydroxytryptamine receptor 1A (Rattus norvegicus, UniProt P19327).
T1 sequence (P19327 whole entry): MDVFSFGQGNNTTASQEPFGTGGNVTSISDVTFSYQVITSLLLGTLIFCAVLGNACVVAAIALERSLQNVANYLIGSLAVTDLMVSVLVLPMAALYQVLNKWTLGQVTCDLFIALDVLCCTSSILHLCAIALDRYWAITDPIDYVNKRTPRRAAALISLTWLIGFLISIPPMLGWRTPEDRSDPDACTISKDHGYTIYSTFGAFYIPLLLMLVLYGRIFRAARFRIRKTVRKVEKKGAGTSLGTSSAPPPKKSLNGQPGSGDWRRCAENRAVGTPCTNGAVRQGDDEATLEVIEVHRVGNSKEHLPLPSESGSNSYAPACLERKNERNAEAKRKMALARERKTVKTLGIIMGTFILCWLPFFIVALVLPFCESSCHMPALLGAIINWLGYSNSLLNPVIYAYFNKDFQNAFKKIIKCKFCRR
The assay is described as follows: Displacement of [3H]8-OH-DPAT from 5-HT1A receptor in rat hippocampus. Format: tissue-based.
For `Cc1ccccc1-c1c2n(c(=O)n(CCCCN3CCC(c4c(C)[nH]c5ccccc45)CC3)c1=O)CCCC2`, the affinity corresponds to a Ki of 642 nM.
The compound `Cc1ccc(-c2c3n(c(=O)n(CCCCN4CCC(c5c(C)[nH]c6ccccc56)CC4)c2=O)CCCC3)cc1` gave an inhibition constant (Ki) of 279 nM. This Ki is about 2.3-fold lower than that of the compound before.
The same measure, in the same setting: to `Cc1[nH]c2ccccc2c1C1CCN(CCCCn2c(=O)c(-c3ccccc3F)c3n(c2=O)CCCC3)CC1` belongs 303 nM.
On the same count and under the same terms, to `Cc1[nH]c2ccccc2c1C1CCN(CCCCn2c(=O)c(-c3ccc(F)cc3)c3n(c2=O)CCCC3)CC1` belongs 114 nM; to `COc1ccccc1-c1c2n(c(=O)n(CCCCN3CCC(c4c(C)[nH]c5ccccc45)CC3)c1=O)CCCC2`, 319 nM; to `Cc1[nH]c2ccccc2c1C1CCN(CCCCn2c(=O)c(-c3ccccc3Cl)c3n(c2=O)CCCC3)CC1`, 393 nM.
Still for that read-out and setting: in the case of `Cc1ccccc1-c1c2n(c(=O)n(CCCCN3CCC(c4c[nH]c5ccccc45)CC3)c1=O)CCCC2` it was 112 nM; in that of `COc1ccc(-c2c3n(c(=O)n(CCCCN4CCC(c5c(C)[nH]c6ccccc56)CC4)c2=O)CCCC3)cc1`, 153 nM.

For a further assay, the target named is Sodium-dependent serotonin transporter (Rattus norvegicus, UniProt P31652). The assay is described as follows: Displacement of [3H]citalopram from SERT in rat cerebral cortex by liquid scintillation counting. Format: tissue-based.
Sodium-dependent serotonin transporter, sequence (P31652 whole entry): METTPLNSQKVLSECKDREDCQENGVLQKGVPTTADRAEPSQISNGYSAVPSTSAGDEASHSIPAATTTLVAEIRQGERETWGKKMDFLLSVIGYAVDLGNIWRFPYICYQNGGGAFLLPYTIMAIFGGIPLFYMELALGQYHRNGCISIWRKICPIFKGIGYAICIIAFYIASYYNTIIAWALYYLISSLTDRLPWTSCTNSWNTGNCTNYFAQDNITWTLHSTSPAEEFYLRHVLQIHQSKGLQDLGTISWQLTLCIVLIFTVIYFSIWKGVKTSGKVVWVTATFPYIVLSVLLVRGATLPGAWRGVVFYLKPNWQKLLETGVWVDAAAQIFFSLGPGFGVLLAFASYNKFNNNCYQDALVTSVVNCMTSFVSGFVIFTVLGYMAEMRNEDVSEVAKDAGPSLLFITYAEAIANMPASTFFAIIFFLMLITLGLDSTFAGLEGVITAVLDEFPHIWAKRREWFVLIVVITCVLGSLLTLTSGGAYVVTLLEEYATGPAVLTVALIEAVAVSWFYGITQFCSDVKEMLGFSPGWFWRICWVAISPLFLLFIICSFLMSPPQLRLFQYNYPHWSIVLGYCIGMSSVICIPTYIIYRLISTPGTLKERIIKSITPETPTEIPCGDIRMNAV
The compound `Cc1ccccc1-c1c2n(c(=O)n(CCCCN3CCC(c4c(C)[nH]c5ccccc45)CC3)c1=O)CCCC2` had a Ki of 882 nM.
On the same count and under the same terms, in the case of `Cc1ccc(-c2c3n(c(=O)n(CCCCN4CCC(c5c(C)[nH]c6ccccc56)CC4)c2=O)CCCC3)cc1` it was 1800 nM.
The same measure, in the same setting: to `Cc1[nH]c2ccccc2c1C1CCN(CCCCn2c(=O)c(-c3ccccc3F)c3n(c2=O)CCCC3)CC1` belongs 1300 nM; to `Cc1[nH]c2ccccc2c1C1CCN(CCCCn2c(=O)c(-c3ccc(F)cc3)c3n(c2=O)CCCC3)CC1`, 147 nM; to `COc1ccccc1-c1c2n(c(=O)n(CCCCN3CCC(c4c(C)[nH]c5ccccc45)CC3)c1=O)CCCC2`, 1300 nM.
The same measure, in the same setting: to `Cc1[nH]c2ccccc2c1C1CCN(CCCCn2c(=O)c(-c3ccccc3Cl)c3n(c2=O)CCCC3)CC1` belongs 1300 nM.
In turn, `Cc1ccccc1-c1c2n(c(=O)n(CCCCN3CCC(c4c[nH]c5ccccc45)CC3)c1=O)CCCC2` returned a Ki of 69.1 nM.
Still for that read-out and setting: to `COc1ccc(-c2c3n(c(=O)n(CCCCN4CCC(c5c(C)[nH]c6ccccc56)CC4)c2=O)CCCC3)cc1` belongs 184 nM.
